According to the supplement of paper PMC10331698:
± gives the standard deviation of the averaged measurements.

What was measured:
Assay in all cases: level (log10 ratio to DMSO vehicle control); higher = higher biomarker level / cell amount than vehicle control
[1] = compound: C[C@@H]1C[C@H]2[C@@H]3CCC4=CC(=O)C=C[C@]4(C)[C@@]3(F)[C@@H](O)C[C@]2(C)[C@@]1(O)C(=O)COP(=O)(O)O [Dexamethasone sodium phosphate] (in DMSO)
Method: (§1)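 BioMAP Diversity Plus panel of 12 human primary cell co-culture systems (3C, 4H, LPS, SAg, BT, BF4T, BE3C, CASM3C, HDF3CGF, KF3CT, MyoF, Mphg). Compounds were added 1 h before stimulation and left for 24 h (MyoF 48 h; BT 72 h for soluble read-outs or 6 d for IgG). Biomarkers were read by ELISA, cytotoxicity by SRB, PBMC viability and proliferation by Alamar Blue. Each well value was divided by the mean of 8 DMSO control wells on the same plate and log10 transformed; duplicate blinded samples were tested at 4 concentrations.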

[2] = compound: O=C(O)C(F)(OC(F)(F)C(F)(OC(F)(F)C(F)(OC(F)(F)C(F)(F)C(F)(F)F)C(F)(F)F)C(F)(F)F)C(F)(F)F [Perfluoro-(2,5,8-trimethyl-3,6,9-trioxadodecanoic)acid] (in DMSO)
Method: as §1

[3] = compound: CO[Si](C)(CCC(F)(F)C(F)(F)C(F)(F)C(F)(F)C(F)(F)C(F)(F)F)OC [Dimethoxymethyl((perfluorohexyl)ethyl)silane] (in DMSO)
Method: as §1

[4] = compound: OCC(F)(F)C(F)(F)C(F)(F)C(F)F [1H,1H,5H-Perfluoropentanol] (in DMSO)
Method: as §1

[5] = compound: O=C(O)C(F)(F)C(F)(F)C(F)(F)OC(F)(F)F [Perfluoro(4-methoxybutanoic) acid] (in DMSO)
Method: as §1

[6] = compound: O=S(=O)(O)C(F)(F)C(F)(F)OC(F)(F)C(F)(F)F [Perfluoro(2-ethoxyethane)sulfonic acid] (in DMSO)
Method: as §1

| Test System | level (log10) ([1]; 1500 nM) | level (log10) ([1]; 4400 nM) | level (log10) ([1]; 13000 nM) | level (log10) ([1]; 40000 nM) | level (log10) ([2]; 1100 nM) | level (log10) ([2]; 3300 nM) | level (log10) ([2]; 10000 nM) | level (log10) ([3]; 6700 nM) | level (log10) ([3]; 20000 nM) | level (log10) ([4]; 6700 nM) | level (log10) ([4]; 20000 nM) | level (log10) ([4]; 60000 nM) | level (log10) ([5]; 6700 nM) | level (log10) ([5]; 20000 nM) | level (log10) ([5]; 60000 nM) | level (log10) ([6]; 6700 nM) | level (log10) ([6]; 20000 nM) | level (log10) ([6]; 60000 nM) |
| --- | --- | --- | --- | --- | --- | --- | --- | --- | --- | --- | --- | --- | --- | --- | --- | --- | --- | --- |
| BF4T:PAI-I | -0.0005 ± 0.022 | 0.01 ± 0.013 | 0.001 ± 0.018 | 0.0085 ± 0.0021 | 0.011 ± 0.0071 | -0.0025 ± 0.0092 | 0.006 ± 0.018 | -0.008 ± 0.013 | -0.0145 ± 0.0021 | 0.01 ± 0.0085 | 0.0095 ± 0.018 | 0.0215 ± 0.026 | 0.0015 ± 0.011 | -0.008 ± 0.014 | 0.014 ± 0.035 | -0.002 ± 0.0014 | -0.002 ± 0.0028 | 0.0105 ± 0.021 |
| BF4T:CD106/VCAM-1 | -0.019 ± 0.011 | -0.013 ± 0.028 | -0.02 ± 0.0085 | -0.049 ± 0.0042 | -0.027 ± 0.0028 | -0.0185 ± 0.026 | -0.018 ± 0.023 | 0.018 ± 0.0014 | -0.003 ± 0.02 | -0.019 ± 0.085 | 0.0225 ± 0.029 | 0.021 ± 0.081 | -0.005 ± 0.023 | -0.012 ± 0.0071 | -0.0015 ± 0.04 | 0.003 ± 0.0057 | 0.0045 ± 0.028 | 0.021 ± 0.055 |
| BE3C:CXCL11/I-TAC | 0 ± 0.018 | 0.0145 ± 0.0021 | -0.0175 ± 0.04 | -0.0215 ± 0.0078 | 0.0145 ± 0.0092 | 0.0165 ± 0.013 | 0.014 ± 0.016 | -0.0055 ± 0.019 | -0.0125 ± 0.0035 | 0.003 ± 0.017 | 0.0165 ± 0.028 | 0.0315 ± 0.046 | 0.011 ± 0.018 | 0.008 ± 0.0085 | 0.0135 ± 0.0092 | 0.032 ± 0.0057 | 0.076 ± 0.0042 | 0.073 ± 0.0042 |
| LPS:CD40 | 0.0175 ± 0.054 | -0.035 ± 0.03 | -0.012 ± 0.037 | -0.0635 ± 0.019 | 0.04 ± 0.1 | 0.0475 ± 0.015 | 0.007 ± 0.055 | -0.0085 ± 0.029 | -0.009 ± 0.025 | -0.017 ± 0.016 | -0.0085 ± 0.005 | 0.0145 ± 0.015 | -0.0385 ± 0.06 | 0 ± 0.055 | -0.0465 ± 0.094 | 0.0515 ± 0.016 | 0.022 ± 0.0028 | 0.047 ± 0.016 |
| BF4T:IL-1alpha | 0.0045 ± 0.028 | -0.001 ± 0.013 | -0.0165 ± 0.013 | 0.004 ± 0.023 | -0.005 ± 0.0099 | -0.0105 ± 0.00071 | -0.0025 ± 0.0035 | -0.0245 ± 0.0078 | 0.014 ± 0.035 | -0.02 ± 0.0085 | 0.03 ± 0.044 | 0.0195 ± 0.018 | 0.007 ± 0.013 | 0.008 ± 0.028 | -0.003 ± 0.023 | -0.0065 ± 0.0078 | -0.016 ± 0.0071 | 0.0165 ± 0.0092 |
| BF4T:Keratin 8/18 | 0.011 ± 0.047 | -0.0015 ± 0.013 | -0.0105 ± 0.019 | -0.0025 ± 0.015 | 0.024 ± 0.0099 | 0.0055 ± 0.022 | 0.018 ± 0.0099 | 0.029 ± 0.034 | 0.006 ± 0.016 | -0.046 ± 0.033 | 0.006 ± 0.044 | 0.0235 ± 0.023 | 0.0035 ± 0.032 | 0.001 ± 0.05 | 0.013 ± 0.045 | 0.0015 ± 0.012 | -0.01 ± 0.0028 | 0.023 ± 0.037 |
| BT:sTNF-alpha | -0.575 ± 0.0078 | -0.553 ± 0.0099 | -0.525 ± 0.13 | -0.566 ± 0.13 | -0.0445 ± 0.052 | -0.028 ± 0.021 | 0.0375 ± 0.079 | -0.0935 ± 0.15 | 0.094 ± 0.11 | -0.0315 ± 0.0092 | -0.051 ± 0.016 | -0.003 ± 0.068 | -0.028 ± 0.0042 | -0.0245 ± 0.046 | 0.0445 ± 0.016 | -0.002 ± 0.037 | -0.012 ± 0.083 | 0.029 ± 0.058 |
| SAg:CD40 | -0.044 ± 0.0085 | -0.072 ± 0.05 | -0.0535 ± 0.03 | -0.074 ± 0.081 | -0.009 ± 0.0071 | -0.0015 ± 0.0021 | -0.0005 ± 0.019 | -0.0095 ± 0.0078 | -0.022 ± 0.0042 | -0.055 ± 0.033 | -0.018 ± 0.031 | -0.0165 ± 0.073 | -0.029 ± 0.023 | -0.034 ± 0.045 | -0.034 ± 0.052 | 0.0065 ± 0.0035 | 0.024 ± 0.0085 | 0.017 ± 0.0085 |
| BF4T:CCL2/MCP-1 | -0.0085 ± 0.019 | -0.0165 ± 0.0035 | -0.017 ± 0.0014 | -0.0135 ± 0.018 | 0.007 ± 0.028 | 0.0015 ± 0.00071 | -0.004 ± 0.017 | -0.0175 ± 0.00071 | 0.01 ± 0.021 | -0.0175 ± 0.036 | 0.0495 ± 0.023 | 0.0305 ± 0.074 | 0.031 ± 0.031 | 0.007 ± 0.054 | 0.035 ± 0.028 | 0.0155 ± 0.0064 | 0.0155 ± 0.0064 | 0.0315 ± 0.039 |
| BF4T:CXCL8/IL-8 | -0.0315 ± 0.04 | -0.0495 ± 0.046 | -0.0715 ± 0.033 | -0.0435 ± 0.00071 | 0.0365 ± 0.0078 | 0.034 ± 0.024 | 0.034 ± 0.016 | -0.005 ± 0.027 | 0.012 ± 0.018 | 0.037 ± 0.083 | 0.0505 ± 0.07 | 0.0685 ± 0.046 | 0.04 ± 0.069 | 0.014 ± 0.086 | 0.0245 ± 0.028 | 0.008 ± 0.0099 | 0.005 ± 0.024 | 0.0365 ± 0.011 |
| BF4T:SRB | 0.0155 ± 0.0078 | 0.0005 ± 0.0064 | 0.01 ± 0.013 | 0.0135 ± 0.016 | -0.0035 ± 0.00071 | -0.0035 ± 0.011 | 0.003 ± 0.023 | -0.0055 ± 0.005 | -0.0045 ± 0.005 | -0.0055 ± 0.0021 | 0.001 ± 0.0085 | 0.002 ± 0.0014 | -0.0105 ± 0.00071 | -0.0135 ± 0.0064 | -0.0105 ± 0.0035 | 0.0045 ± 0.015 | 0.001 ± 0.0099 | 0.004 ± 0.018 |
| 4H:CD87/uPAR | -0.0055 ± 0.0021 | -0.0195 ± 0.022 | -0.024 ± 0.086 | -0.0375 ± 0.094 | 0.001 ± 0.027 | -0.0025 ± 0.011 | 0.0075 ± 0.0092 | 0.004 ± 0.028 | 0.0195 ± 0.013 | -0.0225 ± 0.0092 | 0.0025 ± 0.019 | 0.007 ± 0.034 | 0.0495 ± 0.039 | 0.035 ± 0.048 | 0.046 ± 0.04 | 0.017 ± 0.062 | 0.0005 ± 0.049 | 0.0065 ± 0.059 |
| 3C:CXCL8/IL-8 | 0.014 ± 0.027 | -0.0015 ± 0.0035 | -0.0035 ± 0.032 | -0.007 ± 0.062 | -0.004 ± 0.021 | -0.015 ± 0.011 | 0.005 ± 0.024 | -0.007 ± 0.0014 | 0.011 ± 0.0057 | 0.0115 ± 0.023 | 0.0035 ± 0.03 | 0.0545 ± 0.063 | 0.008 ± 0.014 | 0.001 ± 0.0099 | 0.022 ± 0.025 | 0.0295 ± 0.028 | 0.0455 ± 0.074 | 0.095 ± 0.062 |
| 3C:SRB | -0.0005 ± 0.00071 | -0.005 ± 0.0085 | -0.0025 ± 0.025 | 0.0035 ± 0.025 | -0.0025 ± 0.005 | -0.0065 ± 0.0035 | 0.003 ± 0.0071 | -0.006 ± 0.0028 | 0.0085 ± 0.0035 | -0.011 | -0.006 ± 0.03 | -0.015 ± 0.011 | -0.0175 ± 0.018 | -0.0255 ± 0.018 | -0.0195 ± 0.0064 | -0.022 ± 0.0042 | -0.0025 ± 0.00071 | -0.0275 ± 0.0021 |
| 4H:SRB | 0.001 ± 0.011 | -0.0135 ± 0.005 | 0.005 ± 0.014 | 0.007 ± 0.038 | 0.0045 ± 0.0064 | 0 ± 0.0028 | 0.009 ± 0.0057 | -0.015 ± 0.013 | 0.0065 ± 0.00071 | -0.003 ± 0.0014 | 0.011 ± 0.0042 | 0.0065 ± 0.005 | -0.01 ± 0.0014 | -0.018 ± 0.0099 | -0.0155 ± 0.0021 | -0.015 ± 0.0057 | -0.0035 ± 0.0021 | -0.016 ± 0.023 |
| LPS:CD141/Thrombomodulin | 0.05 ± 0.031 | 0.035 ± 0.028 | 0.0125 ± 0.039 | 0.032 ± 0.027 | -0.019 ± 0.0028 | -0.002 ± 0.0042 | 0.0005 ± 0.0021 | 0.024 ± 0.034 | 0.006 ± 0.016 | -0.0125 ± 0.0035 | 0.008 ± 0.02 | 0.023 ± 0.0099 | -0.028 ± 0.023 | -0.0285 ± 0.052 | -0.0195 ± 0.053 | 0.067 ± 0.0085 | 0.057 ± 0.055 | 0.051 ± 0.072 |
